From patent US20130338092A1, “COMPOUNDS AND METHODS FOR TARGETING LEUKEMIC STEM CELLS” (The Broad Institute, Inc., priority 2011, published 2013)
“Also recorded” adds a separate entry of the source.

Key:
[1] = test system: MLL-AF9 LSC; test: Triple coculture (LSCs and HSPCs on primary MSCs), leukemia cells; assay type: cell-based, murine; conditions: for leukemic cells in triple coculture: 200 nM lovastatic acid or 1 μM BRD7116, 5 days; for IC50: Mus musculus, MLL-AF9, murine LSCs in triple coculture with HSPCs on MSCs
Description: (§1) As in the original assay approach, treatment of these triple cocultures began one day after hematopoietic cell plating and was assessed 5 days later.
(§2) An in vitro therapeutic index was determined for each compound, a comparative measure of the potential for anti-LSC efficacy relative to the potential for dose-limiting toxicities to normal HSCs (myeloablation), or to normal progenitors (myelosuppression). Specifically, ratios were created using the IC50s for primary murine HSPCs in triple coculture as the numerator, and the IC50s for primary murine leukemia inhibition in triple coculture as the denominator, toward assessing the potential for HSC harm relative to LSC inhibition.

[2] = test system: dsRed+ LSCs; test: Syngeneic transplantation of compound-treated triple cocultures, leukemia onset / survival; assay type: in vivo, mice; conditions: cocultures treated 48 hours ex vivo, then transplanted; vs DMSO
Description: Heterotypic cocultures containing dsRed+ LSCs, CD45.1+ HSPCs, and GFP+ MSCs were exposed to compounds for 48 hours, then transplanted en masse post trypsinization with untreated wild-type helper splenocytes (CD45.1+CD45.2+) into lethally irradiated, wildtype recipient animals (CD45.2+). Latency of leukemia onset was compared for mice receiving cocultures treated with compound compared to DMSO control treated cocultures. The engraftment of the normal HSPCs treated and injected along with the leukemia cells was quantified by FACs analysis of the bone marrow of mice alive at the 16 week endpoint across treatments.
As in vivo readouts may better reflect hematopoietic stem cell function compared to in vitro readouts (Purton, L. E., and Scadden, D. T. (2007). Cell Stem Cell 1, 263-270.; Bock, T. A. (1997). Stem Cells 15 Suppl 1, 185-195.), our results were confirmed using murine transplantation studies. […] Compounds that increase disease latency relative to DMSO control are considered active. […] Bone marrow repopulating ability is a functional measure of normal HSPCs, assessed by quantifying long-term engraftment and differentiation patterns in recipient mice (Bock, T. A. (1997). Stem Cells 15 Suppl 1, 185-195.; Nguyen, L. V., Vanner, R., Dirks, P., and Eaves, C. J. (2012). Nat Rev Cancer 12, 133-143.). […]

[3] = test system: CD34+ cells from primary human leukemia samples; test: Human CD34+ CAFC assay, leukemia samples; assay type: cell-based; conditions: 1.25 μM to 10 μM, 18 hours exposure, read at 5 weeks (2 weeks FLT3-ITD)
Description: Samples were centrifuged over Ficoll-Paque PLUS (GE Heathcare) step gradient (2000×g for 30 min in 50 ml tubes) to obtain mononuclear cells and then CD34^+ cells were selected with immunomagnetic beads (MACS Cell Separation, Miltenyi Biotec, Auburn, Calif.), except in one case, NPM1 mutation, which was CD34^− by flow cytometry and mononuclear cells were used. 50,000 cells were placed into 12.5 cm^2 flasks (Becton Dickinson Labware, Franklin Lakes, N.J.) in co-culture with the MS-5 mouse bone marrow-derived stromal cell line (kindly provided by Dr. Itoh, Dept. of Biology, Niigata University, Japan) and DMSO control and the number of final cobblestones was later read. The number of cells needed to form one cobblestone was then placed in triplicate for each sample with each drug at serial drug dilutions from 10 μM to 0.63 μM as well as with DMSO 0.5% for control purposes and incubated overnight with Iscove's modified Dulbecco's medium (IMDM, in house media preparation laboratory)+20% fetal calf serum (FCS, Atlanta Biologicals, Lawrenceville, Ga.) with glutamine (2 mM/ml, in house media preparation laboratory), monothioglycerol (MTG, 10 nM/ml, Sigma Cell Culture, St. Louis Mo.), c-Kit ligand (20 ng/ml, Amgen, Thousand Oaks, Calif.), Flt ligand (20 ng/ml, Imclone, Bridgewater, N.J.), TPO (20 ng/ml, Amgen) and IL-3 (20 ng/ml, Amgen). Cells were then washed to remove the drugs and placed into 96 well cell culture plates (Becton Dickinson) with α-MEM (in house media preparation laboratory)+12.5% FCS+12.5% horse serum (Gemini Bio-products, West Sacramento, Calif.) with glutamine, MTG, hydrocortisone (1 nM/ml, Sigma) and IL-3 in co-culture with MS-5 stromal cells. […] The same procedure was followed with normal CD34+ cells obtained from cord blood.
The cells were treated with compound or DMSO carrier control at four doses (ranging from 1.25 μM to 10 μM) in triplicate for 18 hours, washed thoroughly, then plated onto human stromal MS-5 monolayers (Itoh, K., Tezuka, H., Sakoda, H., Konno, M., Nagata, K., Uchiyama, T., Uchino, H., and Mori, K. J. (1989). Exp Hematol 17, 145-153.) and maintained in coculture with one subsequent half media change. After 5 weeks (2 weeks for the FLT3-ITD sample (Moore, M. A., Dorn, D. C., Schuring a, J. J., Chung, K. Y., and Morrone, G. (2007). Exp Hematol 35, 105-116.)), cobblestone formation was determined, and dose-response curves against the 7 cell types were generated for each compound.

[4] = test system: human AML cell lines (U937, THP-1, NOMO-1, SKM-1, NB4, and OCI-AML3); test: AML cell line screen (CellTiter-Glo); assay type: cell-based
Description: Nomo-1, THP-1, SKM-1, NB4, and U937 cell lines were grown in RPMI (12-702F, BioWhittaker), 10% FBS (10082-147, Gibco), and 1% Pen-Strep (15140-122, Gibco) and OCI-AML3 was grown in α-MEM (36453, Stem Cell Technologies), 10% FBS (10082-147, Gibco), and 1% Pen-Strep (15140-122, Gibco). 3000 cells were plated in each well in 30 μl in white, 384 well plates (3570, Corning) and 16 hours later 100 nl of the appropriate compound was added to each well. 72 hours later the plates were cooled to room temperature and 30 μl of CellTiterGlo reagent (G7570, Promega) diluted 1:1 in PBS was added to each well and the plates were analyzed using an Envision (Perkin Elmer).
First, a traditional small molecule screen was performed on six human AML cell lines (U937, THP-1, NOMO-1, SKM-1, NB4, and OCI-AML3), two of which (NOMO-1, THP-1) contain the same oncogene (MLL-AF9) used to generate the primary leukemia cells utilized in our coculture system. The cell lines were grown in isolation under standard conditions, treated with the 160 compounds at 8-point dose, and three days later the viability of each well was quantified using CellTiter-Glo reagent. The IC50s from these AML cell line screens were then compared to the IC50s from the coculture screens. […] As discussed, the existence of such differentially-active compounds is consistent with our hypothesis that coculturing can expand the pool of therapeutically promising compounds identified in high throughput format.

[5] = test system: primary leukemia cells; test: Annexin V apoptosis assay; assay type: cell-based, murine; conditions: 22 hours in suspension, compared to DMSO control
Description: Compounds were added to a final DMSO concentration of 0.02%. […] The cells were analyzed by flow cytometry on a FacsCanto II (Becton Dickinson).

[6] = test system: normal primary human CD34+ cells; test: Alamar Blue assay for human progenitor cell toxicity; conditions: for IC50: Homo sapiens, 168 h, read-out: Normal Progenitor* IC50
Description: Normal G-CSF mobilized CD34+ cells (AllCells, LLC, Emeryville, Calif.), normal BM CD34 cells (MSKCC, New York, N.Y.) and cord blood CD34+ cells (New York Blood Center, New York) were previously frozen and thawed out before the proliferation assay was set up in 384-well plates. Briefly, 50 μl of IMDM medium containing 20% FBS (Gemini Bio-Product, West Sacramento, Calif.), 20 ng/ml of recombinant human Kit Ligand (rhKL), 20 ng/ml of rh-Interleukin-3 (rhIL-3), 20 ng/ml of rhG-CSF, 6 units/ml of rhEPO, 10-42-mercaptoethanol, 2 mM glutamine, 50 u/ml penicillin, 50 μg/ml streptomycin, 1,000 viable CD34+ cells in the presence of various doses of Broad compounds (drug-treated group) or 0.1% DMSO (control group) were incubated at 37° C. After 6 days, 5 μl of AlamaBlue (AbD Serotec, Raleigh, N.C.) was added to each well and further incubated overnight. The fluorescence signal was then measured with GeminiXS microplate reader (Molecular Devices, Sunnyvale, Calif.). Effect of small molecules to proliferation of CD34+ cells was reported as Relative fluorescent intensity (Relative Fluorescent Intensity=Fluorescent Intensity (drug-treated)/Fluorescent Intensity (Control).
Finally, experiments were performed to examine whether BRD7116 or lovastatic acid were likely to cause myelosuppression, a type of deleterious toxicity in patients resulting from harm to normal human hematopoietic progenitor cells. This consideration is especially important as conventional therapies currently used in the clinic have myelosuppressive toxicities that are dose-limiting. To this end, a hematopoietic progenitor assay was employed to compare the effects of BRD7116 and lovastatic acid to effects given by such known myelosuppressive compounds. In this assay, normal primary human CD34^+ cord blood cells were plated with cytokines in suspension, treated with compound for 7 days, and then examined for viability relative to DMSO treated controls.

[7] = test system: normal murine HSPCs; test: Triple coculture (LSCs and HSPCs on primary MSCs), normal HSPCs; conditions: for IC50: Mus musculus, read-out: Normal HSPC* IC50
Description: as §1, §2

## CC1(C)C(C(=O)Nc2ccc(S(=O)(=O)c3ccc(NC(=O)C4C(C)(C)C4(C)C)cc3)cc2)C1(C)C [BRD7116]
[1]
  leukemic cells in triple coculture: selective loss of the leukemia population; also recorded: selectively cleared the dsRed^+ leukemic cells
  IC50: 0.5 µM
[2]
  latency of leukemia onset / survival of recipient mice: mild, but statistically significant prolonged latency of leukemia onset
[3]
  leukemia cobblestone inhibition (human CAFC): leukemia cobblestone inhibition was observed across all six primary leukemia samples
[4]; of the positive control
  inhibition of AML cell lines at maximal doses: 50%
[4]; relative to DMSO control, concentrations greater than 30 μM
  inhibition of AML cell lines: roughly 50%
[5]
  induction of apoptosis (Annexin V): mild induction of apoptosis
[6]
  toxicity to hematopoietic progenitor cells: minimal toxicity
  IC50: 10 µM
[7]
  IC50: 5 µM

## CCC(C)C(=O)OC1CC(C)C=C2C=CC(C)C(CCC(O)CC(O)CC(=O)O)C21 (stereo not shown) [Lovastatic acid]
[1]
  leukemic cells in triple coculture: selectively cleared the dsRed^+ leukemic cells
  IC50: 0.1 µM
[1]; listed as lovastatin
  leukemic cells in triple coculture: selective loss of the leukemia population
[2]
  latency of leukemia onset / survival of recipient mice: survived substantially longer than the DMSO control group
[3]
  leukemia cobblestone inhibition (human CAFC): leukemia cobblestone inhibition was observed across all six primary leukemia samples
[4]
  activity against AML cell lines: only weak activity
[4]; Homo sapiens, read-out: IC50 across the AML cell lines
  IC50: > 10 µM
[5]
  induction of apoptosis (Annexin V): underwent apoptosis
[6]
  toxicity to hematopoietic progenitor cells: minimal toxicity
  IC50: 10 µM
[7]; 200 nM lovastatic acid or 1 μM BRD7116, 5 days
  normal HSPCs in triple coculture: continued to display healthy, cobblestoned morphologies
[7]
  IC50: 0.8 µM
